Reference: PMC9029893 (International Journal of Molecular Sciences, 2022)

What was measured:
[1] = system: HUVEC cells; test: HUVEC integrity in RTCA-DP system (normalized cell index); assay type: cell-based, human
Outline: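 HUVEC seeded at 15,000 cells per well and grown to plateau before compounds in culture medium were added. Electrical impedance tracked in real time over 48 h; results given as mean ± SD normalized cell index (CI at a time point divided by CI at a reference point), n = 4–6.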

[2] = system: clot formation and fibrinolysis in human citrate plasma; test: Clot formation and fibrinolysis test (CL-test); assay type: biochemical
Method: The effects of the […] on overall hemostasis potential by means of clot formation and fibrinolysis test (CL-test) were further tested based on the continuous measurement of the changes in optical transmittance over time, as described by Kostka et al. and Sikora et al.. These experiments were conducted using 470 µL of three-fold diluted human citrate plasma, 10 µL of the tested compounds, and 10 µL t-PA (final concentration in a sample 220 ng/mL). The clot formation was triggered by thrombin (10 µL, final concentration 0.5 IU/mL). The clot formation and lysis curves were determined at a wavelength of 405 nm with a spectrophotometer (Cecil CE 2021; London, UK) with circulating thermostated water (37 °C) and a Model 300 Electronic Stirrer (Rank Brothers Ltd., Cambridge, UK). The experiments were conducted in multiplicate (n = 5–7), and the results are presented as mean ± SD.
The received graphs were analyzed using dedicated software to determine the kinetic parameters of clot formation, stabilization, and fibrinolysis. The following parameters of clot formation were determined: Tt—thrombin time (s), Fmax—maximum clotting (%T), Tf—plasma clotting time (s), Fvo—initial plasma clotting velocity (%T/min), Sr—area under the clot formation curve (%Txmin). The parameters of the clot stabilization phase comprised Tc—clot stabilization time (s), Sc—area under the curve of stable clot formation (%Txmin). The parameters of fibrinolysis comprised Lmax—maximum lysis (%T), Tl—fibrinolysis time (s), Lvo—initial clot fibrinolysis velocity (%T/min), Sf—area under the fibrinolysis curve (%Txmin). Additionally, the overall potential of clot formation and fibrinolysis (CLAUC, (%Txmin)) and total time of the process of clot formation and fibrinolysis (T, (s)) were also estimated.

[3] = system: coagulation in human citrate plasma; test: Coagulation assay (endogenous thrombin generation); assay type: biochemical
Method: These reagents induce a feedback reaction leading to the generation of endogenous thrombin, and coagulation. The other experimental conditions were the same as for the CL-test (Section 4.12).
The obtained curves were analyzed using dedicated software that estimates the following parameters: TGt—thrombin generation time (s), Fmax—maximum clotting (%T), Tf—plasma clotting time (s), Fvo—initial plasma clotting velocity (%T/min), Sf—area under the clot formation curve (%Txmin), Tc—clot stabilization time (s), S—area under the curve of coagulation (%Txmin).

SMILES: CN(C)C(=N)N=C(N)NS(=O)(=O)C1CCCCC1 [Compound 3]
- normalized Cell Index (nCI) ([1]; 0.3 mM, 3 hours): 0.680 ± 0.083
- normalized Cell Index (nCI) ([1]; 0.3 mM, 6 hours): 0.837 ± 0.213
- normalized Cell Index (nCI) ([1]; 0.3 mM, 12 hours): 0.927 ± 0.212
- normalized Cell Index (nCI) ([1]; 0.3 mM, 24 hours): 0.969 ± 0.156
- normalized Cell Index (nCI) ([1]; 0.3 mM, 36 hours): 0.714 ± 0.035
- normalized Cell Index (nCI) ([1]; 1.0 mM, 3 hours): 0.233 ± 0.039
- normalized Cell Index (nCI) ([1]; 1.0 mM, 6 hours): 0.554 ± 0.047
- normalized Cell Index (nCI) ([1]; 1.0 mM, 12 hours): 0.616 ± 0.042
- normalized Cell Index (nCI) ([1]; 1.0 mM, 24 hours): 0.748 ± 0.061
- normalized Cell Index (nCI) ([1]; 1.0 mM, 36 hours): 0.694 ± 0.054
- Fmax—maximum clotting ([2]; 0.06 mM): 65.40 ± 9.39 %T
- Fvo—initial plasma clotting velocity ([2]; 0.06 mM): 208.17 ± 44.80 %T/min
- Lmax—maximum lysis ([2]; 0.06 mM): 71.38 ± 8.36 %T
- Lvo—initial clot fibrinolysis velocity ([2]; 0.06 mM): 20.38 ± 5.24 %T/min
- Sc—area under the curve of a stable clot formation ([2]; 0.06 mM): 314.15 ± 49.14 %T x min
- Sf—area under the clot formation curve ([2]; 0.06 mM): 48.52 ± 10.81 %T x min
- Sl (area under the fibrinolysis curve) ([2]; 0.06 mM): 156.16 ± 30.07 %T x min
- S—overall potential of clot formation and fibrinolysis (CLAUC) ([2]; 0.06 mM): 521.91 ± 66.81 %T x min
- Tc—clot stabilization time ([2]; 0.06 mM): 279.50 ± 46.51 s
- Tf—plasma clotting time ([2]; 0.06 mM): 57.45 ± 8.71 s
- Tl—fibrinolysis time ([2]; 0.06 mM): 235.33 ± 48.33 s
- Tt—thrombin time ([2]; 0.06 mM): 16.68 ± 3.26 s
- T—total time of the process of clot formation and fibrinolysis ([2]; 0.06 mM): 588.97 ± 87.54 s
- Fmax—maximum clotting ([2]; 0.3 mM): 68.78 ± 4.04 %T
- Fvo—initial plasma clotting velocity ([2]; 0.3 mM): 214.17 ± 32.05 %T/min
- Lmax—maximum lysis ([2]; 0.3 mM): 70.15 ± 3.87 %T
- Lvo—initial clot fibrinolysis velocity ([2]; 0.3 mM): 22.88 ± 8.98 %T/min
- Sc—area under the curve of a stable clot formation ([2]; 0.3 mM): 335.21 ± 50.51 %T x min
- Sf—area under the clot formation curve ([2]; 0.3 mM): 44.41 ± 6.00 %T x min
- Sl (area under the fibrinolysis curve) ([2]; 0.3 mM): 142.20 ± 37.46 %T x min
- S—overall potential of clot formation and fibrinolysis (CLAUC) ([2]; 0.3 mM): 521.82 ± 88.83 %T x min
- Tc—clot stabilization time ([2]; 0.3 mM): 299.50 ± 38.60 s
- Tf—plasma clotting time ([2]; 0.3 mM): 55.13 ± 7.55 s
- Tl—fibrinolysis time ([2]; 0.3 mM): 229.17 ± 48.85 s
- Tt—thrombin time ([2]; 0.3 mM): 16.23 ± 4.22 s
- T—total time of the process of clot formation and fibrinolysis ([2]; 0.3 mM): 600.03 ± 91.80 s
- Fmax—maximum clotting ([2]; 0.6 mM): 66.60 ± 4.00 %T
- Fvo—initial plasma clotting velocity ([2]; 0.6 mM): 211.50 ± 22.76 %T/min
- Lmax—maximum lysis ([2]; 0.6 mM): 67.55 ± 4.50 %T
- Lvo—initial clot fibrinolysis velocity ([2]; 0.6 mM): 23.53 ± 6.67 %T/min
- Sc—area under the curve of a stable clot formation ([2]; 0.6 mM): 323.11 ± 42.53 %T x min
- Sf—area under the clot formation curve ([2]; 0.6 mM): 42.40 ± 3.94 %T x min
- Sl (area under the fibrinolysis curve) ([2]; 0.6 mM): 137.48 ± 23.47 %T x min
- S—overall potential of clot formation and fibrinolysis (CLAUC) ([2]; 0.6 mM): 502.99 ± 64.69 %T x min
- Tc—clot stabilization time ([2]; 0.6 mM): 299.50 ± 40.90 s
- Tf—plasma clotting time ([2]; 0.6 mM): 54.73 ± 5.88 s
- Tl—fibrinolysis time ([2]; 0.6 mM): 234.83 ± 42.86 s
- Tt—thrombin time ([2]; 0.6 mM): 17.17 ± 3.17 s
- T—total time of the process of clot formation and fibrinolysis ([2]; 0.6 mM): 606.23 ± 87.70 s
- Fmax—maximum clotting ([2]; 1.5 mM): 63.60 ± 5.36 %T
- Fvo—initial plasma clotting velocity ([2]; 1.5 mM): 199.50 ± 18.07 %T/min
- Lmax—maximum lysis ([2]; 1.5 mM): 63.92 ± 5.38 %T
- Lvo—initial clot fibrinolysis velocity ([2]; 1.5 mM): 23.50 ± 13.77 %T/min
- Sc—area under the curve of a stable clot formation ([2]; 1.5 mM): 368.60 ± 84.14 %T x min
- Sf—area under the clot formation curve ([2]; 1.5 mM): 47.68 ± 7.07 %T x min
- Sl (area under the fibrinolysis curve) ([2]; 1.5 mM): 143.17 ± 38.79 %T x min
- S—overall potential of clot formation and fibrinolysis (CLAUC) ([2]; 1.5 mM): 559.45 ± 127.25 %T x min
- Tc—clot stabilization time ([2]; 1.5 mM): 355.50 ± 66.77 s
- Tf—plasma clotting time ([2]; 1.5 mM): 62.35 ± 6.00 s
- Tl—fibrinolysis time ([2]; 1.5 mM): 253.17 ± 62.51 s
- Tt—thrombin time ([2]; 1.5 mM): 18.15 ± 4.30 s
- T—total time of the process of clot formation and fibrinolysis ([2]; 1.5 mM): 689.17 ± 134.48 s
- Fmax—maximum clotting ([3]; 0.06 mM): 84.78 ± 5.57 %T
- Fvo—initial plasma clotting velocity ([3]; 0.06 mM): 108.56 ± 28.63 %T/min
- Sc—area under the curve of a stable clot formation ([3]; 0.06 mM): 586.27 ± 95.97 %T x min
- Sf—area under the clot formation curve ([3]; 0.06 mM): 102.35 ± 29.66 %T x min
- S—overall potential of clot formation ([3]; 0.06 mM): 1628.36 ± 118.58 %T x min
- TGt—thrombin generation time ([3]; 0.06 mM): 155.00 ± 20.58 s
- Tf—plasma clotting time ([3]; 0.06 mM): 108.30 ± 35.15 s
- Fmax—maximum clotting ([3]; 0.3 mM): 82.66 ± 7.51 %T
- Fvo—initial plasma clotting velocity ([3]; 0.3 mM): 113.42 ± 23.98 %T/min
- Sc—area under the curve of a stable clot formation ([3]; 0.3 mM): 766.41 ± 394.94 %T x min
- Sf—area under the clot formation curve ([3]; 0.3 mM): 100.51 ± 28.00 %T x min
- S—overall potential of clot formation ([3]; 0.3 mM): 1580.91 ± 150.03 %T x min
- TGt—thrombin generation time ([3]; 0.3 mM): 139.60 ± 7.44 s
- Tf—plasma clotting time ([3]; 0.3 mM): 108.58 ± 33.64 s
- Fmax—maximum clotting ([3]; 0.6 mM): 82.44 ± 5.61 %T
- Fvo—initial plasma clotting velocity ([3]; 0.6 mM): 127.78 ± 40.82 %T/min
- Sc—area under the curve of a stable clot formation ([3]; 0.6 mM): 560.45 ± 102.47 %T x min
- Sf—area under the clot formation curve ([3]; 0.6 mM): 107.67 ± 29.19 %T x min
- S—overall potential of clot formation ([3]; 0.6 mM): 1580.02 ± 119.57 %T x min
- TGt—thrombin generation time ([3]; 0.6 mM): 158.40 ± 13.03 s
- Tf—plasma clotting time ([3]; 0.6 mM): 112.94 ± 35.34 s
- Fmax—maximum clotting ([3]; 1.5 mM): 77.50 ± 8.20 %T
- Fvo—initial plasma clotting velocity ([3]; 1.5 mM): 135.98 ± 31.06 %T/min
- Sc—area under the curve of a stable clot formation ([3]; 1.5 mM): 537.91 ± 99.63 %T x min
- Sf—area under the clot formation curve ([3]; 1.5 mM): 83.28 ± 17.34 %T x min
- S—overall potential of clot formation ([3]; 1.5 mM): 1494.31 ± 163.29 %T x min
- TGt—thrombin generation time ([3]; 1.5 mM): 165.40 ± 28.25 s
- Tf—plasma clotting time ([3]; 1.5 mM): 93.42 ± 26.49 s
